Test system: blood triglyceride levels
Assay: Assay of blood triglyceride levels in dogs after 11 days of oral capsule administration (GK-GPO-POD method)
Details: serum, relative ratio against averaged pre-dosing level (100), oral capsule once daily, mean of 5 dogs
[1] = Table 9, pravastatin 2 mg/kg, pantethine 300 mg/kg
[2] = Table 11, pravastatin 2, riboflavin butyrate 6, d-α-tocopherol acetate 150, ascorbic acid 500 mg/kg
[3] = Table 12, pravastatin 2, d-α-tocopherol acetate 10, ascorbic acid 50 mg/kg

From the text: Beagle dogs aged 5 months were purchased from Covance Research Products Inc. and used after 1 month of quarantine and acclimatisation breeding.
(3) Preparation Forms for Administration, Methods of Preparing the Formulation, and Method of Stocking the Formulation
The calculated amounts of pravastatin or each component of the compositions based on the body weight of each dog were weighed and filled in a gelatin capsule (½ ounce) purchased from TORPAC Inc. Capsules filled with pravastatin were stocked in a refrigerator and, those filled with combination drugs stocked at room temperature until use.
The combination drugs were filled in identical gelatin capsules.
(4) Route of Administration and Administration Period
Pravastatin or combination drug capsules were forcibly orally administered to each of the test animals once daily between 9:00 and 12:30. Animals were fasted for 2 or 3 hr prior to administration of the capsules.
The administration period was 11 successive days.
(5) Preparation of Test Samples and Procedures
Blood (10 mL) was collected from the superficial radial vein 14 and 7 days prior to capsule administration (2 and 1 weeks prior to administration) and 4, 8, and 12 days after administration of the capsule. Animals were fasted for approximately 18 hr prior to blood collection. Collected blood was placed in a test tube, left at room temperature for 0.5-1 hr, before being centrifuged (3,000 rpm for 10 min). The obtained serum was used for assays of blood triglyceride levels according to GK-GPO-POD methods.
A full automatic analyzer (Monarch, Instrumentation Laboratory, Inc.) was used for assay of triglycerides.
The averaged value in each group was obtained from 5 animals per group.

CC[C@H](C)C(=O)O[C@H]1C[C@H](O)C=C2C=C[C@H](C)[C@H](CC[C@@H](O)C[C@@H](O)CC(=O)O)[C@H]21 [Pravastatin alone, (+)−(3R, 5R)-3,5-dihydroxy-7-[(1S, 2S,6S,8S,8aR)-6-hydroxy-2-methyl-8-[(S)-2-methylbutyryloxy]-1,2,6,7,8,8a-hexahydro-1-naphthyl]heptanoic acid]
91.1: Blood Triglyceride Levels after administration, 12 days [1] | Blood Triglyceride Levels after administration, 12 days [2] | Blood Triglyceride Levels after administration, 12 days [3]
104.0: Blood Triglyceride Levels after administration, 8 days [1] | Blood Triglyceride Levels after administration, 8 days [2] | Blood Triglyceride Levels after administration, 8 days [3]
108.9: Blood Triglyceride Levels after administration, 4 days [1] | Blood Triglyceride Levels after administration, 4 days [2] | Blood Triglyceride Levels after administration, 4 days [3]

From patent US20060223811A1, “Triglycerine depressant composition” (priority 2000, published 2006)
